Assay results from patent US20080213125A1, “Apparatus and Method for Using Ozone as a Disinfectant” (Huawei Technologies Co. LTD., priority 2004, published 2008).
“And” between values parts separate entries of the source, which are not always exact repeats. Equal entries are not always repeated. Where two headings read alike, the source gives them in different places.

Columns and labels:
[1] = test system: Herpes Simplex Virus (HSV); test: Experiment #1: ozone gas exposure of virus on surfaces in a chamber
[2] = test system: Feline calicivirus (FCV); test: as above
[3] = test system: Mulluscum Contagiosum Virus (MCV)
[4] = test system: Poliovirus; settings: under similar conditions (about 100 ppm chamber)
[5] = test system: viruses
[6] = test system: HSV; test: Experiment #2: ozone inactivation at different locations within a test room; settings: 28 ppm, 60 minutes exposure; three samples at three locations in test room
[7] = test system: FCV; test: Experiment #3: reduced ozone doses and high humidity; settings: high humidity, 20 ppm to 40 ppm, about 15 minutes
[8] = test system: Poliovirus; settings: high humidity, 20 ppm to 40 ppm, about 15 minutes
[9] = test system: HSV; test: Experiment #3: reduced ozone doses and high humidity; settings: high humidity, 20 ppm to 40 ppm, about 15 minutes
[10] = test system: Herpes Simplex Virus (HSV); test: Experiment #4: ozone gas against dried viruses on surfaces
[11] = test system: FV
[12] = test system: MCV
[13] = test system: influenza virus
[14] = test system: corona virus
[15] = test system: rhinovirus; test: Experiment #4: ozone gas against dried viruses on surfaces; settings: dried state on glass, plastic, steel, wood and fabric
[16] = test system: Poliovirus; settings: dried state on glass, plastic, steel, wood and fabric
[17] = test system: viruses; remark: listed apart in the source
[18] = test system: Feline calicivirus (FCV)
[19] = test system: MS2 coliphage; settings: aqueous, 20 seconds, ozone demand-free 0.05 M phosphate buffer (pH 6.9) at 22 degrees C.; cited from earlier work
[20] = test system: Polio-virus type 3; settings: aqueous, 20 seconds, ozone demand-free 0.05 M phosphate buffer (pH 6.9) at 22 degrees C.; cited from earlier work
[21] = test system: Polio-viruses; settings: aqueous, 1.0 to 1.5 mg ozone/liter (dissolved); cited from earlier work
[22] = test system: Polio-virus 1 (PV1); settings: steadily flowing water at 20 degrees C. and pH 7; cited from earlier work
[23] = test system: Hepatitis A virus; settings: aqueous, 60 seconds, 1 mg/L or greater at all pH levels; cited from earlier work
[24] = test system: HIV Type 1; settings: 2 hours, 1,200 ppm; cited from earlier work
[25] = target: factor VIII (Homo sapiens, UniProt P00451); settings: plasma and immunoaffinity-purified preparations; 2 hours, 1,200 ppm; cited from earlier work
Chain of factor VIII (P00451 20-2351): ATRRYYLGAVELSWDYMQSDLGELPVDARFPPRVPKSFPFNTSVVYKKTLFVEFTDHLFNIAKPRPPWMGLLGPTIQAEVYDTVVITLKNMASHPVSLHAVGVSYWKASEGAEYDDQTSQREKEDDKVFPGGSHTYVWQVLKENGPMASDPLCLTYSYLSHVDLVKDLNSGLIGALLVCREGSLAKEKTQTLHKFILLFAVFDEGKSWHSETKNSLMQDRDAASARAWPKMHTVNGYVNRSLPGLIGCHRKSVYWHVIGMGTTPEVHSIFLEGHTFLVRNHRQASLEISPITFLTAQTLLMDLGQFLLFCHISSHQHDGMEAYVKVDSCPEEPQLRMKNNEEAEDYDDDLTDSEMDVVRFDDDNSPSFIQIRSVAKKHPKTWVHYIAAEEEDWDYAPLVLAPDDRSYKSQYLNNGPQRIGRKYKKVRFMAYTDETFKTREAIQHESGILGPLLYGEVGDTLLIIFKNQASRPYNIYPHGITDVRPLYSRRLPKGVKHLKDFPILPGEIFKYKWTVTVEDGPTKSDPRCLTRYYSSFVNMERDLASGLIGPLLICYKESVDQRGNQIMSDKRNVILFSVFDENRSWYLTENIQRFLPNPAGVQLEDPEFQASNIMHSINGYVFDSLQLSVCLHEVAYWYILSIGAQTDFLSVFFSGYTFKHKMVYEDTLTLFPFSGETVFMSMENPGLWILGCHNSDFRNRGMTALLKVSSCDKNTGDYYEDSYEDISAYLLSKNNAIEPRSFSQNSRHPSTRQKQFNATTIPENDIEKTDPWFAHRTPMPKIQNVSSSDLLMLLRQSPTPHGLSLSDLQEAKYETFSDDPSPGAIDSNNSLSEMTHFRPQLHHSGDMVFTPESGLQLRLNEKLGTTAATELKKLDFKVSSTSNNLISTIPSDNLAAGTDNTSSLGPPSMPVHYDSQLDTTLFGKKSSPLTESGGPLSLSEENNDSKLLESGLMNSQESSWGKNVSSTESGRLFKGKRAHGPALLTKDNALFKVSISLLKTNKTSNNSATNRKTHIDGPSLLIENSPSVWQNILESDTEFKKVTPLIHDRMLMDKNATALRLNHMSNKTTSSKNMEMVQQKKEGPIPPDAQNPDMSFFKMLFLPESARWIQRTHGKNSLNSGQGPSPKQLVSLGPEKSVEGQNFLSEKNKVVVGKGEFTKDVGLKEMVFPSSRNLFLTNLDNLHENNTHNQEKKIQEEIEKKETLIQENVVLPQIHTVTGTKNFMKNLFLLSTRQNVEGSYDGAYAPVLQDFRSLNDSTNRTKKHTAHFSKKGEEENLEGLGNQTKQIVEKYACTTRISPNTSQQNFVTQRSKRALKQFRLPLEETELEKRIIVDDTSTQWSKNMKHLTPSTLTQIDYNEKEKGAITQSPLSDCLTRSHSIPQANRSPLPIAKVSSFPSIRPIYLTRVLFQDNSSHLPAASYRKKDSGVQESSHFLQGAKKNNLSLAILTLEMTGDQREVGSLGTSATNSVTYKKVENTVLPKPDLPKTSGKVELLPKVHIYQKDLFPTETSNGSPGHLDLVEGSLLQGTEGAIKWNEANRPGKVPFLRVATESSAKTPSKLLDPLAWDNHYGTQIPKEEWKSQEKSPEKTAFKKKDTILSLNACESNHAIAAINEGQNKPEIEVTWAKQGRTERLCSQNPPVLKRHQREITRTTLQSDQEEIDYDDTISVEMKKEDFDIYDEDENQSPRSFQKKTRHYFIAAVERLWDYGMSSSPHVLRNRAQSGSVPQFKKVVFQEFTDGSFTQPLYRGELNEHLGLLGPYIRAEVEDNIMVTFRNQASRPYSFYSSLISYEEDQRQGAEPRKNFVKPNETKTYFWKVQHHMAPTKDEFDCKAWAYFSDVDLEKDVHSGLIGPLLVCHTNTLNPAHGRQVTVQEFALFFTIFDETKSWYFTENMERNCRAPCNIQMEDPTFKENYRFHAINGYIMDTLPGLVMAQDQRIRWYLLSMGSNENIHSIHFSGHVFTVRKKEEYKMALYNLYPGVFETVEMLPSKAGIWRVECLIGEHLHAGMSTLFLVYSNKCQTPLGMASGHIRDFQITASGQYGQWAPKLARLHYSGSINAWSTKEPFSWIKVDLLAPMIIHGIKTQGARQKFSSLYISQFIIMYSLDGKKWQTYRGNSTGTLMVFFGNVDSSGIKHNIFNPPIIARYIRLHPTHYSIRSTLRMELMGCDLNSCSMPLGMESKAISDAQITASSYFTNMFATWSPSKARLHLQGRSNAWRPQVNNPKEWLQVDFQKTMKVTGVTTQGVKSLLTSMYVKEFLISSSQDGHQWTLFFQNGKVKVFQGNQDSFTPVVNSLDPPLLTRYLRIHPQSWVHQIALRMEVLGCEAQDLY

[26] = test system: Human rotavirus; settings: cited from earlier work
[27] = test system: Venezuelan equine encephalomyelitis virus; settings: aqueous, 45 minutes, 0.025 mg of ozone per liter; control levels 10 (7.25-7.5); cited from earlier work
[28] = test system: Poliovirus; settings: 0.1-2.0 mg/l, aqueous, cited from earlier work
[29] = test system: HIV; settings: serum and serum-supplemented media; tested 0.5 to 4.0 micrograms/ml−1; cited from earlier work
[30] = test system: HEp-2 cell-associated poliovirus (Sabin 1); settings: cited from earlier work
[31] = test system: HEp-2 cell-associated coxsackievirus A9; settings: aqueous, 30 seconds, 4.06-4.68 mg/liter; cited from earlier work
[32] = test system: Influenza virus; settings: gaseous, in vivo, 0.5 ppm; cited from earlier work
[33] = test system: Human rotavirus; settings: aqueous, 25 μg/ml; cited from earlier work
[34] = test system: Vesicular stomatitis virus (VSV); settings: 3 to 14 mL of 1.4 mmol/L (65 micrograms/mL) to 1.6 mmoler/L, aqueous; cited from earlier work
[35] = test system: bacteriophage phi 6; settings: 3 to 14 mL of 1.4 mmol/L (65 micrograms/mL) to 1.6 mmoler/L, aqueous; cited from earlier work
[36] = test system: T1 phage; settings: gaseous, 10 minutes, 10 ppm; cited from earlier work
[37] = test system: Influenza virus; settings: inhaled, 0.5 ppm; cited from earlier work
[38] = test system: Respiratory syncytial virus; settings: gaseous, in vitro, 2 hours, 1 ppm; cited from earlier work
[39] = test system: Influenza virus; settings: continuous, 0.5 ppm; cited from earlier work
[40] = test system: Influenza virus; settings: 3 hours (post infection), 0.6 ppm; cited from earlier work
[41] = test system: Hepatitis A virus; settings: ozone and UV light, cited from earlier work
[42] = test system: type 39 rhinovirus; settings: cited from earlier work

## Ozone
[1]; 100 ppm for 20-30 minutes
  reduced the virus: more than 99%
[1]; 100 ppm, 10 minutes
  inactivated virus infectivity: 90-95%
[2]; 100 ppm for 20-30 minutes
  reduced the virus: more than 99%
[2]; 100 ppm, 10 minutes
  inactivated virus infectivity: 90-95%
[3]
  reduced the virus: more than 99%
[4]
  inactivation by ozone: inactivated
[5]
  susceptibility of viruses to ozone on surfaces: susceptible
  virus inactivation in high humidity versus ambient humidity: much more efficiently
  virus infectivity after exposure: no vilus infectivity could be detected at all
[6]
  HSV inactivated (killed): 98% and 99.4% and 97.8%
[7]
  inactivated: 99.91%
[8]
  inactivated: more than 99.6%
[9]
  inactivated: more than 99%
[10]; 100 ppm for 20 to 30 minutes
  reduced the virus: more than 99%
[10]; dried state on glass, plastic, steel, wood and fabric
  inactivation (kill) by ozone gas: efficiently inactivate
[11]
  reduced the virus: more than 99%
[12]
  reduced the virus: more than 99%
[13]
  inactivation (kill) by ozone gas: efficiently inactivate
[14]
  inactivation (kill) by ozone gas: efficiently inactivate
[15]
  inactivation (kill) by ozone gas: efficiently inactivate
[16]
  inactivation (kill) by ozone gas: efficiently inactivate
[17]
  susceptibility of viruses to ozone on surfaces: susceptible
  virus inactivation in high humidity versus ambient humidity: much more efficiently
[18]
  inactivation by the ozone generator: efficiently inactivated
[19]
  MS2 coliphage inactivated: >99.99% of MS2 coliphage
[20]
  more inactivation observed with MS2 coliphage than with poliovirus type 3: inactivated, 1.6 log units more
[21]
  Effectiveness: Dependant on the condition
[22]
  Concentration for complete inactivation of PV1: 0.13 mg/L
[23]
  complete inactivation: complete (5 log) inactivation
[24]
  inactivation: >11 log inactivation (NB.
[25]
  effect on factor VIII activity: Minimal effect on factor VIII
[26]
  sensitivity of human rotavirus to inactivation compared with simian rotavirus: strikingly less sensitive to
[27]
  inactivation: Inactivation of 10 (6.5) median median cell culture infective doses
[28]; Step 1: 0.2-1.0 s
  virus inactivated, Step 1: Step 1: 95 to 99% of the virus
[28]; Step 2: several minutes
  virus inactivated, Step 2: Step 2: remainder inactivated
[29]
  concentration at which complete inactivation of HIV obtained: obtained at 4.0 micrograms/ml−1
[30]
  Effectiveness (inactivation): Inactivated cell-associated
[31]
  Effectiveness (inactivation): Inactivated cell-associated
[32]
  Severity of infection: Severity of infection reduced
[33]
  decrease of rotavirus infectivity: 8 to 9 log10 TCID50/ml.
[34]
  inactivated: Inactivated by greater than 4 log10
[35]
  inactivated: Inactivated by greater than 4 log10
[36]
  reduction in number of phages: 90% reduction in number of
[37]
  distribution of viral antigen: well as altered the distribution
  spread of infection: less widespread infection, as
[38]
  percentage of cells infected, experimental versus control groups: No difference
[39]
  acute virus-induced lung injury & residual lung damage: exposure mitigates acute
  mitigated the virus-induced acute lung injury: approximately 50%. Ozone
  proliferation of virus in the lungs as quantitated by infectious virus titers: Ozone exposure did not alter
[40]
  virus growth in nose: Complete inhibition of virus
[41]; from 1.72 log TCID50 ml(−1), within 24 h
  virus titre after depuration: [TCID50] ml(−1) to <1 log log TCID50 ml(−1)
[41]; from 3.82 log TCID50 ml(−1), within 48 h
  virus titre after depuration: ml(−1) to <1 log TCID50 ml(−1)
[42]; human, in vivo
  adverse effects in experimental group: placebo groups; no adverse
  effect on individuals infected with rhinovirus: no effect
[42]; inhaled, 0.3 ppm, 6 hours per day for five days
  viral titres, experimental versus placebo groups: No difference in viral titres
